This note sets out measurements from patent US20220332799A1, “HERV INHIBITORS FOR USE IN TREATING TAUOPATHIES” (Deutsches Zentrum Für Neurodegenerative Erkrankungen E.V. …, priority 2019, published 2022).

Entries after “also recorded” stand apart in the source; their conditions may differ.

For one assay, the system named is MuERV env and gag mRNA. Briefly: qRT-PCR of MuERV env and gag transcripts in donor clone s2E. In kind it is cell-based, mouse. The conditions noted are these: s2E P1 donors, Aza 200 nM or Dec 100 nM, then 5 days without drug, vs DMSO. Here is the method: To inhibit methyltransferases, s2E P1 donor cells were treated for three days with methyltransferase inhibitors 5-Azacytidine (Aza) 200 nM, Decitabine (Dec) 100 nM or DMSO as solvent control. Subsequently, the cells were cultured in the absence of the drugs for 5 days. Pre-treated donor cells were subsequently cocultured with recipient cells as described above to monitor aggregate induction efficiency in recipient N2a NM-GFP^sol cells. Cell lysates of donor cells were also analyzed for MuERV Env and Gag expression levels by western blot. To increase DNA methylation, the s2E donor clone (P21) was treated with methyl group donors L-methionine (L-M) 80 mM, Betaine (B) 80 mM, Choline chloride (CC) 20 mM or medium control for 6 days. MuERV Env and Gag protein levels were analyzed by western blot. Subsequently, cells were cocultured with recipient cells for 16 h. The percentage of aggregate containing recipient cells was compared to the percentage of aggregate bearing recipients cocultured with solvent-treated donors. […]
Total RNA from cell pellets or brain samples was isolated using the RNeasy Mini Kit or RNeasy Lipid Tissue Mini Kit (Qiagen). RNA concentration and quality were determined using the Agilent 2100 Bioanalyzer System. For a 20 μl reaction, 1 μg RNAs were reversely transcribed to cDNA using the iScript™ cDNA Synthesis Kit (Bio-Rad). For a 20 μl qRT-PCR reaction, 2 μl of synthesized cDNA was used as template. For qRT-PCR of murine env AA037244.2 and gag AID54952, custom designed TaqMan probes were used (Thermo Fisher Scientific). Pre-designed TaqMan probes by the company for murine pan-env, xpr1, mcat-1 and gapdh as housekeeping control and TaqMan™ Gene Expression Master Mix (Thermo Fisher Scientific) were used. qRT-PCR using TaqMan probes was performed as described in the manufacturer's instruction. For qRT-PCR analyses of HERV family members, primers were designed using the corresponding cDNA sequences (cf. SEQ ID NOs. 73-92). PowerUP SYBR™ Green Master Mix (Thermo Fisher Scientific) was mixed with different cDNAs and corresponding primers as indicated in the instruction. The fast cycling mode was used for all primers.

The subject of another assay is N2a NM-GFP^sol cells. Briefly: NM-GFP aggregate induction in recipient cells by EVs from donor clone N2a NM-HA^agg s2E. In kind it is cell-based, mouse. The conditions noted are these: EVs isolated from donors treated with 10 μM for 3 days; no drug on recipients, 16 h. As for the experimental part:
To prepare EV-depleted medium, FCS was ultracentrifuged at 100,000×g for 20 h at 4° C. Medium supplemented with the EV-depleted FCS and antibiotics was subsequently filtered through […] and a 0.1 μM filter-sterilization devices (Millipore). For EV isolation, 2-4×10^6 cells were seeded in T175 flasks in 35 ml EV-depleted medium to reach confluence after 3 days. Cells and cell debris were pelleted by differential centrifugation (300×g, 10 min; 2,000×g, 20 min; 16,000×g, 30 min, 4° C.). The remaining supernatant (conditioned medium) was subjected to ultracentrifugation at 100,000×g for 1 h at 4° C. using rotors Ti45 or SW32Ti (Beckman Coulter). The pellet was rinsed in PBS and spun again using rotor SW55Ti at 100,000×g for 1 h at 4° C.
Recipient cells were cultured on CellCarrier-96 plates or 384 black microplates (PerkinElmer) at appropriate cell numbers for 1 h, and then treated with 5-10 μl of prepared samples (isolated EVs or recombinant NM fibrils). […] On average, a total of 3-4×10^4 cells per well and at least 3 wells per treatment were analyzed.
The treatment of cells with Amprenavir (10 μM; Santa Cruz) and DMSO was performed for 72 h in EV-depleted medium in T175 flasks. Afterwards, the total numbers of viable cells and the viability upon drug treatment were determined using the Vi-VELL™ XR Cell Viability Analyzer (Beckman Coulter). […]

The test system of a further assay is HEK NM-mCherry^sol cells. Put plainly: NM-mCherry aggregate induction by coculture with T47D NM-GFP^agg donor cells. The conditions noted are these: 10 μM, donors 1 d pretreated, coculture 1 d in presence of drug; vs DMSO. It is filed as cell-based, human.

For `Nc1ncn([C@H]2C[C@H](O)[C@@H](CO)O2)c(=O)n1` [Decitabine, 5-aza-2′-deoxycytidine], the “expression of total env and gag mRNA” value was “increased expression of total env and gag mRNA” with MuERV env and gag mRNA; “Increased expression of MuERV env (f), gag (h) and pan-env (g) transcripts” in the assay on MuERV env and gag mRNA (listed as 5-aza-2′-deoxycytidine).
As to `CC(C)CN(C[C@@H](O)[C@H](Cc1ccccc1)NC(=O)O[C@H]1CCOC1)S(=O)(=O)c1ccc(N)cc1` [Amprenavir], in the assay on N2a NM-GFP^sol cells, the “EV-mediated aggregate induction in recipient cells” value is listed as “basically abolished EV-mediated aggregate induction in recipient cells”. Further, the “number of recipient cells with induced NM-mCherry aggregates” value in the assay on HEK NM-mCherry^sol cells was “reduced the number of recipient cells with induced NM-mCherry aggregates compared to the DMSO control; also recorded: impairs NM-mCherry aggregate induction”.
